Measurements from patent US9113629B2, “4-amino-6-(4-substituted-phenyl)-picolinates and 6-amino-2-(4-substituted-phenyl)-pyrimidine-4-carboxylates and their use as herbicides” (DOW AGROSCIENCES LLC, priority 2013, dated 2015).
Where two headings read alike, the source gives them in different places.

Columns and labels:
[1] = system: Key Broadleaf Weed and Crop Species; assay: Post-emergent Test II herbicidal activity (Table 5); type: in vivo; details: post-emergence, 336 h, 14 days after application; for pest or weed control at 70 g/ha: application rate 70 g ai/ha; for pest or weed control at 140 g/ha: application rate 140 g ai/ha
Outline: (§1)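 Scoring: visual, 0–100% injury at 14 d versus untreated. Treatment: overhead track spray, 187 L/ha, onto plants at the first–second true leaf stage. Growth: greenhouse, ~15 h light, 23–29 °C day, 22–28 °C night.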

[2] = system: Key Grass and Sedge Weeds as well as Grass Crops; assay: Post-emergent Test II herbicidal activity (Table 6); type: in vivo; details: post-emergence, 336 h; for pest or weed control at 70 g/ha: 70 g ai/ha; for pest or weed control at 140 g/ha: 140 g ai/ha
Outline: as §1

[3] = ABUTH: velvetleaf (Abutilon theophrasti), read-out: Visual Growth Reduction (%) 14 Days After Application, ABUTH
[4] = AMARE: redroot pigweed (Amaranthus retroflexus), read-out: Visual Growth Reduction (%) 14 Days After Application, AMARE
[5] = BRSNN: oilseed-rape, canola (Brassica napus), read-out: Visual Growth Reduction (%) 14 Days After Application, BRSNN
[6] = CHEAL: lambsquarters (Chenopodium album), read-out: Visual Growth Reduction (%) 14 Days After Application, CHEAL
[7] = EPHHL: wild poinsettia (Euphorbia heterophylla), read-out: Visual Growth Reduction (%) 14 Days After Application, EPHHL
[8] = HELAN: sunflower (Helianthus annuus), read-out: Visual Growth Reduction (%) 14 Days After Application, HELAN
[9] = VIOTR: wild pansy (Viola tricolor), read-out: Visual Growth Reduction (%) 14 Days After Application, VIOTR
[10] = CYPES: yellow nutsedge (Cyperus esculentus), read-out: Visual Growth Reduction (%) 14 Days After Application, CYPES
[11] = DIGSA: crabgrass (Digitaria sanguinalis), read-out: Visual Growth Reduction (%) 14 Days After Application, DIGSA
[12] = ECHCG: barnyardgrass (Echinochloa crus-galli), read-out: Visual Growth Reduction (%) 14 Days After Application, ECHCG
[13] = ORYSA: rice (Oryza sativa), crop, read-out: Visual Growth Reduction (%) 14 Days After Application, ORYSA
[14] = SETFA: giant foxtail (Setaria faberi), read-out: Visual Growth Reduction (%) 14 Days After Application, SETFA
[15] = SORVU: grain sorghum (Sorghum vulgare), read-out: Visual Growth Reduction (%) 14 Days After Application, SORVU
[16] = TRZSS (wheat, Triticum aestivum), crop, read-out: Visual Growth Reduction (%) 14 Days After Application, TRZSS
[17] = ZEAMX: maize, corn (Zea mays), crop, read-out: Visual Growth Reduction (%) 14 Days After Application, ZEAMX

| Structure (SMILES) | melting point | pest or weed control at 70 g/ha [1, 3] | pest or weed control at 140 g/ha [1, 3] | pest or weed control at 70 g/ha [1, 4] | pest or weed control at 140 g/ha [1, 4] | pest or weed control at 70 g/ha [1, 5] | pest or weed control at 140 g/ha [1, 5] | pest or weed control at 70 g/ha [1, 6] | pest or weed control at 140 g/ha [1, 6] | pest or weed control at 70 g/ha [1, 7] | pest or weed control at 140 g/ha [1, 7] | pest or weed control at 70 g/ha [1, 8] | pest or weed control at 140 g/ha [1, 8] | pest or weed control at 70 g/ha [1, 9] | pest or weed control at 140 g/ha [1, 9] | pest or weed control at 70 g/ha [2, 10] | pest or weed control at 140 g/ha [2, 10] | pest or weed control at 70 g/ha [2, 11] | pest or weed control at 140 g/ha [2, 11] | pest or weed control at 70 g/ha [2, 12] | other results |
| --- | --- | --- | --- | --- | --- | --- | --- | --- | --- | --- | --- | --- | --- | --- | --- | --- | --- | --- | --- | --- | --- |
| Cc1ccc(-c2nc(C(=O)O)c(Cl)c(N)c2F)c(F)c1F [Compound 210] | 159 °C (dec.) | 85 to 94% | 95 to 100% | 95 to 100% | 95 to 100% | 75 to 84% | 75 to 84% | 95 to 100% | 95 to 100% | 95 to 100% | 95 to 100% | 95 to 100% | 95 to 100% | 0 to 29% | 0 to 29% | 0 to 29% | 0 to 29% | 0 to 29% | 0 to 29% | 60 to 74% | pest or weed control at 140 g/ha [2, 12]: 75 to 84%; pest or weed control at 70 g/ha [2, 13]: 0 to 29%; pest or weed control at 140 g/ha [2, 13]: 30 to 44%; pest or weed control at 70 g/ha [2, 14]: 75 to 84%; pest or weed control at 140 g/ha [2, 14]: 85 to 94%; pest or weed control at 70 g/ha [2, 15]: 0 to 29%; pest or weed control at 140 g/ha [2, 15]: 0 to 29%; pest or weed control at 70 g/ha [2, 16]: 0 to 29%; pest or weed control at 140 g/ha [2, 16]: 0 to 29%; pest or weed control at 70 g/ha [2, 17]: 0 to 29%; pest or weed control at 140 g/ha [2, 17]: 45 to 59% |
| COC(=O)c1nc(-c2ccc(C)c(F)c2F)c(F)c(N)c1Cl [Compound 211] | 167 to 168 °C | 95 to 100% | 95 to 100% | 95 to 100% | 95 to 100% | 60 to 74% | 85 to 94% | 95 to 100% | 95 to 100% | 95 to 100% | 95 to 100% | 95 to 100% | 95 to 100% | 0 to 29% | 0 to 29% | 45 to 59% | 60 to 74% | 0 to 29% | 0 to 29% | 45 to 59% | pest or weed control at 140 g/ha [2, 12]: 85 to 94%; pest or weed control at 70 g/ha [2, 13]: 0 to 29%; pest or weed control at 140 g/ha [2, 13]: 0 to 29%; pest or weed control at 70 g/ha [2, 14]: 45 to 59%; pest or weed control at 140 g/ha [2, 14]: 60 to 74%; pest or weed control at 70 g/ha [2, 15]: 0 to 29%; pest or weed control at 140 g/ha [2, 15]: 30 to 44%; pest or weed control at 70 g/ha [2, 16]: 0 to 29%; pest or weed control at 140 g/ha [2, 16]: 0 to 29%; pest or weed control at 70 g/ha [2, 17]: 30 to 44%; pest or weed control at 140 g/ha [2, 17]: 45 to 59% |
| Cc1ccc(-c2nc(C(=O)O)c(Cl)c(N)c2F)cc1F [Compound 212] | 145 to 146 °C | 95 to 100% | 95 to 100% | 95 to 100% | 95 to 100% | 95 to 100% | 95 to 100% | 95 to 100% | 95 to 100% | 95 to 100% | 95 to 100% | 95 to 100% | 95 to 100% | 0 to 29% | 0 to 29% | 0 to 29% | 30 to 44% | 0 to 29% | 30 to 44% | 75 to 84% | pest or weed control at 140 g/ha [2, 12]: 85 to 94%; pest or weed control at 70 g/ha [2, 13]: 60 to 74%; pest or weed control at 140 g/ha [2, 13]: 60 to 74%; pest or weed control at 70 g/ha [2, 14]: 45 to 59%; pest or weed control at 140 g/ha [2, 14]: 75 to 84%; pest or weed control at 70 g/ha [2, 15]: 60 to 74%; pest or weed control at 140 g/ha [2, 15]: 75 to 84%; pest or weed control at 70 g/ha [2, 16]: 60 to 74%; pest or weed control at 140 g/ha [2, 16]: 60 to 74%; pest or weed control at 70 g/ha [2, 17]: 75 to 84%; pest or weed control at 140 g/ha [2, 17]: 85 to 94% |
